pIC50: −log10 of the molar value. Read-outs that look alike come from different tables or passages of the source.
Assays:
[1] = target: T1, human androgen receptor (Homo sapiens, UniProt P10275); assay: Androgen receptor reporter gene assay, antagonist action against DHT (MMTV-Luc, pSG5/hAR and Renilla Luc vectors transfected into HeLa cells, dual-luciferase); type: cell-based
T1 construct: expressed in transfected cells; host or cells: HeLa cells
T1 sequence (P10275 1-920): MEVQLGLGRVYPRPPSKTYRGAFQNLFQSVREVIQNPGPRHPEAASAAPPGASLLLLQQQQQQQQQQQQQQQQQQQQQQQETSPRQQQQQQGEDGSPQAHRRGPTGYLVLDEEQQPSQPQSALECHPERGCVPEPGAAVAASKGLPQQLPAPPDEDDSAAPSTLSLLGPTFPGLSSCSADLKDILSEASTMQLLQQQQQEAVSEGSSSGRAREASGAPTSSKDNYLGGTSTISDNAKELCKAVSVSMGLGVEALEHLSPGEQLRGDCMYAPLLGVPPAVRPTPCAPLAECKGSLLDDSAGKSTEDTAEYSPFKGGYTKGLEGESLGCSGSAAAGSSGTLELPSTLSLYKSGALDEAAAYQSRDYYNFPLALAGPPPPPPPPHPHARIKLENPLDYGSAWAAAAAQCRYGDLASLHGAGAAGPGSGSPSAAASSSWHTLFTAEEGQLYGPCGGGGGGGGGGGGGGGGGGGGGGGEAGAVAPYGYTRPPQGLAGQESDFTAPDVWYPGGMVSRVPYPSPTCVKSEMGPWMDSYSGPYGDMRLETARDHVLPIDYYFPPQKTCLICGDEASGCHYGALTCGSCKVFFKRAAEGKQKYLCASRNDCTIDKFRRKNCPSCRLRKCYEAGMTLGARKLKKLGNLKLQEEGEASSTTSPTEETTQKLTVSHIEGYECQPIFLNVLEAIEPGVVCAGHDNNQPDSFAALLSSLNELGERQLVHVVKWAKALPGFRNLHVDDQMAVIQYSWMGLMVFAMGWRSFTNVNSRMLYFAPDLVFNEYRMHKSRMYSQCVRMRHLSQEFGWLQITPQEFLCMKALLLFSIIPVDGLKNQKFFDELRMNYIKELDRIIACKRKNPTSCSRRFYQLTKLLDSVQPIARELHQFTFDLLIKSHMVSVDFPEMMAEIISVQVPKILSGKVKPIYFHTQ
Procedure: The expression "acting as antagonist" means that in the following androgen receptor gene assay, the transcriptional activity value of 0.1 nmol/L of dihydrotestosterone (DHT) is inhibited to 0 - 50% at any concentration of 0.1 nmol/L - 10 µmol/L:
Twenty-four hours before transfection, 1.0 x 10^5 HeLa cells are cultured in phenol red free DMEM/5% DCC-FBS on 12-well microplates. Five hundred nanograms/well of MMTV-Luc vector, 100 ng/well of pSG5/hAR and 5 ng/well of Renilla Luc vector are transfected into the HeLa cells. The transfection is performed in a liquid culture of the phenol red free DMEM using […] of lipofectoamine. Nine hours after the transfection, the liquid culture is replaced by phenol red free DMEM/3% DCC-FBS containing 0.1 nmol/L of DHT and […] of a compound of the invention which is represented by the general formula (I) or the substance of the invention which acts as antagonist against but not as agonist for the androgen receptor. The transcriptional activity value is measured 48 hours after the replacement of the liquid culture. Transcriptional activity is measured with a dual-luciferase reporter assay system. The transcriptional activity value is defined as the value for firefly luciferase divided by the value for sea pansy luciferase. […] 270, pp. 19998-20003, 1995.
(§1) Twenty-four hours before transfection, 1.0 x 10^5 HeLa cells were cultured in phenol red free DMEM/5% DCC-FBS on 12-well microplates. Five hundred nanograms/well of MMTV-Luc vector, 100 ng/well of pSG5/hAR and 5 ng/well of Renilla Luc vector were transfected into the HeLa cells. The transfection was performed in a liquid culture of the phenol red free DMEM using […] of lipofectoamine. […] The transcriptional activity value was measured 48 hours after the replacement of the liquid culture. Transcriptional activity was measured with a dual-luciferase reporter assay system. The transcriptional activity value was calculated as the value for firefly luciferase divided by the value for sea pansy luciferase.
The compound was added at concentrations of 1, 10, 100, 1000 and 10000 nmol/L and at each of these concentrations, measurement was done in the presence of DHT (0.1 nmol/L). Antagonist activity = Transcriptional activity when the compound was added/Transcriptional activity when the compound was not added x 100 [formula]

[2] = target: T1, human androgen receptor; assay: Androgen receptor reporter gene assay, agonist action (MMTV-Luc, pSG5-hAR and Renilla Luc vectors transfected into HeLa cells, dual-luciferase); type: cell-based; conditions: for FI5 value: concentration showing a transcriptional activity five times that without compound, tested at 1, 10, 100, 1000 and 10000 nmol/L
Description: Speaking of the substance of the invention which acts as antagonist against but not as agonist for the androgen receptor, the expression "not acting as agonist" means that in the following androgen receptor gene assay, the transcriptional activity value of the substance at any concentration of 0.1 nmol/L - 10 µmol/L is from one to five times the transcriptional activity value for no addition of the substance which is taken as unity:
Twenty-four hours before transfection, 1.0 x 10^5 HeLa cells (purchased from Dainippon Pharmaceutical Co., Ltd.) are cultured in phenol red free Dulbecco's modified Eagle medium (DMEM) containing 5% of charcoal-treated FBS (DCC-FBS) in 12-well microplates. Five hundred nanograms/well of MMTV-Luc vector (the reporter plasmid of luciferase having mouse tumor long terminal repeats containing the androgen response element: GM-CAT vector (A.T.C.C. No. 67282) purchased from A.T.C.C. provided that the chloramphenicol acetyl transferase gene was replaced by the firefly luciferase gene), 100 ng/well of pSG5-hAR (the expression vector of the human androgen receptor which harbors the androgen receptor gene under the control of SV40 promoter) and 5 ng/well of Renilla Luc vector (a vector for internal standard incorporating the sea pansy luciferase gene) are transfected into the HeLa cells. The transfection is performed in a liquid culture of the phenol red free DMEM using […] of lipofectoamine (GibcoBRL). Nine hours after the transfection, the liquid culture is replaced by phenol red free DMEM/3% DCC-FBS containing 10 µmol/L of a compound of the invention which is represented by the general formula (I) or the substance of the invention which acts as antagonist against but not as agonist for the androgen receptor. The transcriptional activity value is measured 48 hours after the replacement of the liquid culture. Transcriptional activity is measured with a dual-luciferase reporter assay system (Promega). The transcriptional activity value is defined as the value for firefly luciferase divided by the value for sea pansy luciferase. […] 270, pp. 19998-20003, 1995.
as §1, with “pSG5-hAR” for “pSG5/hAR”
The compound was added at concentrations of 1, 10, 100, 1000 and 10000 nmol/L. Agonist activity = Transcriptional activity when the compound was added/Transcriptional activity when the compound was not added [formula]

[3] = concentration giving 50% decrease in the transcriptional activity of DHT 0.1 nmol/L, tested at 1, 10, 100, 1000 and 10000 nmol/L, read-out: IC50 value

C[C@]12CCC(=O)C[C@@H]1C[C@@H](CCCCCCCC(=O)NCCO)[C@@H]1[C@@H]2CC[C@]2(C)[C@@H](O)CC[C@@H]12 (stereo in doubt) [Example 64, 17β-hydroxy-7α-[7-{N-(2-hydroxyethyl]-aminocarbonyl}heptyl]-5α-androstan-3-one]
pIC50 [1, 3]: 6.09

CNC(=O)CCCOc1cccc(CCC[C@@H]2C[C@H]3CC(=O)CC[C@]3(C)[C@H]3CC[C@]4(C)[C@@H](O)CC[C@H]4[C@H]23)c1 (stereo in doubt) [Example 164, 17β-hydroxy-7α-[3-[3-{3-(N-methylaminocarbonyl)propoxy}phenyl]propyl]-5α-androstan-3-one]
FI5 value [2]: ND (even when the compound was added at a concentration of 10000 nM, the transcriptional activity of the compound-treated group was less than 5 times the transcriptional activity of the control group, making it impossible to compute the FI5 value) | pIC50 [1]: 6.54

CCCCN(C)C(=O)CCCCCCCCCC[C@@H]1CC2=CC(=O)CC[C@]2(C)[C@H]2CC[C@]3(C)[C@@H](O)CC[C@H]3[C@H]12 [EM-101, reference compound]
pIC50 [1, 3]: 5.58

CN(C)C(=O)CCCCCCC[C@@H]1C[C@H]2CC(=O)CC[C@]2(C)[C@H]2CC[C@]3(C)[C@@H](O)CC[C@H]3[C@H]12 [Example 9, 17β-hydroxy-7α-{7-(N,N-dimethylaminocarbonyl)-heptyl}-5α-androstan-3-one]
pIC50 [1]: 6.35

CCNC(=O)CCCCCCC[C@@H]1C[C@H]2CC(=O)CC[C@]2(C)[C@H]2CC[C@]3(C)[C@@H](O)CC[C@H]3[C@H]12 [Example 10]
pIC50 [1, 3]: 6.03

CC(C)NC(=O)CCCCCCCC1CC2CC(=O)CCC2(C)C2CCC3(C)C(O)CCC3C12 (stereo not drawn) [Example 14]
FI5 value [2]: ND (even when the compound was added at a concentration of 10000 nM, the transcriptional activity of the compound-treated group was less than 5 times the transcriptional activity of the control group, making it impossible to compute the FI5 value) | pIC50 [1]: 5.70

CCCCN(C)C(=O)CCCCCCCC1CC2CC(=O)CCC2(C)C2CCC3(C)C(O)CCC3C12 (stereo not drawn) [Example 18]
pIC50 [1]: 6.47

CCN(CC)C(=O)CCCCCCCC1CC2CC(=O)CCC2(C)C2CCC3(C)C(O)CCC3C12 (stereo not drawn) [Example 19]
pIC50 [1]: 6.53

CC12CCC3C(C(CCCCCCCC(=O)NCc4ccco4)CC4CC(=O)CCC43C)C1CCC2O (stereo not drawn) [Example 23]
pIC50 [1, 3]: 5.89

CNC(=O)CCCCCCCC1CC2CC(=O)CCC2(C)C2CCC3(C)C(O)CCC3C12 (stereo not drawn) [Example 24]
pIC50 [1]: 6.32

CCN(C)C(=O)CCCCCCCC1CC2CC(=O)CCC2(C)C2CCC3(C)C(O)CCC3C12 (stereo not drawn) [Example 25]
pIC50 [1, 3]: 6.38

CCCN(C)C(=O)CCCCCCCC1CC2CC(=O)CCC2(C)C2CCC3(C)C(O)CCC3C12 (stereo not drawn) [Example 26]
pIC50 [1, 3]: 5.95

CC(C)N(C)C(=O)CCCCCCCC1CC2CC(=O)CCC2(C)C2CCC3(C)C(O)CCC3C12 (stereo not drawn) [Example 27]
pIC50 [1]: 6.38

CC12CCC3C(C(CCCCCCCC(=O)N4CCCC4)CC4CC(=O)CCC43C)C1CCC2O (stereo not drawn) [Example 29]
FI5 value [2]: ND (even when the compound was added at a concentration of 10000 nM, the transcriptional activity of the compound-treated group was less than 5 times the transcriptional activity of the control group, making it impossible to compute the FI5 value) | pIC50 [1]: 6.52

CN(C)C(=O)CCCCCCCCCC1CC2CC(=O)CCC2(C)C2CCC3(C)C(O)CCC3C12 (stereo not drawn) [Example 42]
pIC50 [1, 3]: 6.47

CCN(CC)C(=O)CCCCCCCCCC1CC2CC(=O)CCC2(C)C2CCC3(C)C(O)CCC3C12 (stereo not drawn) [Example 43]
pIC50 [1, 3]: 5.89

CCCCN(C)C(=O)CCCCCCCCCC1CC2CC(=O)CCC2(C)C2CCC3(C)C(O)CCC3C12 (stereo not drawn) [Example 46]
pIC50 [1, 3]: 5.76

CCCN(C)C(=O)CCCCCCCCCC1CC2CC(=O)CCC2(C)C2CCC3(C)C(O)CCC3C12 (stereo not drawn) [Example 50]
pIC50 [1, 3]: 6.13

CC12CCC3C(C(CCCCCCCCCC(=O)N4CCOCC4)CC4CC(=O)CCC43C)C1CCC2O (stereo not drawn) [Example 51]
pIC50 [1, 3]: 6.32

CN(C)C(=O)CCCCCCCCCCC1CC2CC(=O)CCC2(C)C2CCC3(C)C(O)CCC3C12 (stereo not drawn) [Example 52]
FI5 value [2]: ND (even when the compound was added at a concentration of 10000 nM, the transcriptional activity of the compound-treated group was less than 5 times the transcriptional activity of the control group, making it impossible to compute the FI5 value) | pIC50 [1]: 6.56

CCCNC(=O)CCCCCCCC1CC2CC(=O)CCC2(C)C2CCC3(C)C(O)CCC3C12 (stereo not drawn) [Example 65]
pIC50 [1, 3]: 5.74

CC12CCC3C(C(CCCCCCCC(=O)NCc4ccccc4)CC4CC(=O)CCC43C)C1CCC2O (stereo not drawn) [Example 73]
pIC50 [1, 3]: 5.96

CCN(CC)C(=O)CCCCCCCCCC1CC2(C)C(O)CCC2C2CCC3CC(=O)CCC3(C)C12 (stereo not drawn) [Example 96]
pIC50 [1, 3]: 5.80

CC12CCC3C(C(CCCc4cccc(OCCCCC(=O)N5CCCC5)c4)CC4CC(=O)CCC43C)C1CCC2O (stereo not drawn) [Example 167]
pIC50 [1, 3]: 6.32

CN(C)C(=O)CCCOc1cccc(CCCC2CC3CC(=O)CCC3(C)C3CCC4(C)C(O)CCC4C23)c1 (stereo not drawn) [Example 168]
pIC50 [1, 3]: 6.27

bicaltamide
transcriptional activity value relative to the case of non-addition ([2]; Example 1, HeLa cells, 48 hours): more than five times | acting as agonist ([2]; at a concentration of 10 µmol/L): act as agonist | FI5 value [2]: 767 nM | agonist action for the androgen receptor mediated transcriptional activity ([2]; summary of the results of Example 180): exhibit agonist action

From patent EP1219631A1, “ANTIANDROGEN AGENTS” (CHUGAI SEIYAKU KABUSHIKI KAISHA, priority 1999, dated 2001)
